The text below walks through data of patent US11203591B2, “Substituted 6-azabenzimidazole compounds” (Gilead Sciences, Inc., priority 2018, dated 2021).

Sequence of human HPK1 (MAP4K1) (Q92918 17-274): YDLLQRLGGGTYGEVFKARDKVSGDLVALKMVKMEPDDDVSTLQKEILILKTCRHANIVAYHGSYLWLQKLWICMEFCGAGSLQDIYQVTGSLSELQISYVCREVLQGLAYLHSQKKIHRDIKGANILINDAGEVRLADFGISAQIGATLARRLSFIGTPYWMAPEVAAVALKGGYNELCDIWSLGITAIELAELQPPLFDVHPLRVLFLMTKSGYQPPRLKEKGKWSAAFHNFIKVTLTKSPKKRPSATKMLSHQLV

The assay concerns the target human HPK1 (MAP4K1) (Homo sapiens (Human), UniProt Q92918). As to the kind of experiment: HPK1 IC50 Assay (TR-FRET peptide phosphorylation). It counts as biochemical. Conditions: recombinant HPK1 kinase domain 0.15 nM, 10 μM ATP, 1 μM STK S1 peptide; geometric mean of multiple experiments. The procedure, abridged: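 Readout: TR-FRET (665 nm/620 nm) after EDTA stop, detecting STK S1 peptide (1 μM) phosphorylation by 0.15 nM HPK1 kinase domain, ATP-pre-activated, at 10 μM ATP over 3 h, 25° C, pH 7.0. IC50s from four-parameter variable-slope fits, normalized to staurosporine and DMSO, averaged geometrically.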
Background: TR-FRET usually uses a lanthanide donor and a delayed reading to cut background.
What is called IC50 is the concentration that gives 50% inhibition. Regarding `Cc1c(C(=O)NC2CC2)cc(Nc2nc(-c3cnc4c(c3)N([C@H]3C[C@@](C)(N5CCCCC5)C3)C(=O)C4(C)C)cc3ncn(C(C)C)c23)c(F)c1F` [Example 221, N-Cyclopropyl-5-((6-(3,3-dimethyl-1-((1s,3s)-3-methyl-3-(piperidin-1-yl)cyclobutyl)-2-oxo-2,3-dihydro-1H-pyrrolo[3,2-b]pyridin-6-yl)-3-isopropyl-3H-imidazo[4,5-c]pyridin-4-yl)amino)-3,4-difluoro-2-methylbenzamide], the IC50 turned out to be 70 pM. Turning to `CCNC(=O)c1cc(Nc2nc(-c3cnc4c(c3)N([C@H]3C[C@@](C)(N5CCCCC5)C3)C(=O)C4(C)C)cc3ncn(C(C)C)c23)c(F)c(F)c1C` [Example 222, 5-((6-(3,3-Dimethyl-1-((1s,3s)-3-methyl-3-(piperidin-1-yl)cyclobutyl)-2-oxo-2,3-dihydro-1H-pyrrolo[3,2-b]pyridin-6-yl)-3-isopropyl-3H-imidazo[4,5-c]pyridin-4-yl)amino)-N-ethyl-3,4-difluoro-2-methylbenzamide], the IC50 turned out to be 60 pM. Consider `CCNC(=O)c1ccc(F)c(Nc2nc(-c3cnc4c(c3)N([C@H]3C[C@@](C)(N5CCCCC5)C3)C(=O)C4(C)C)cc3ncn(C(C)C)c23)c1` [Example 223, 3-((6-(3,3-Dimethyl-1-((1s,3s)-3-methyl-3-(piperidin-1-yl)cyclobutyl)-2-oxo-2,3-dihydro-1H-pyrrolo[3,2-b]pyridin-6-yl)-3-isopropyl-3H-imidazo[4,5-c]pyridin-4-yl)amino)-N-ethyl-4-fluorobenzamide], for which the IC50 worked out at 200 pM. For the compound `Cc1c(C(=O)NC2(C(F)F)CC2)cc(Nc2nc(-c3cnc4c(c3)N([C@H]3C[C@@](C)(N5CC6CCC5CO6)C3)C(=O)C4(C)C)cc3ncn(C(C)C)c23)c(F)c1F` (stereo partly shown) [Example 224, 5-((6-(1-((1s,3s)-3-(2-oxa-5-azabicyclo[2.2.2]octan-5-yl)-3-methylcyclobutyl)-3,3-dimethyl-2-oxo-2,3-dihydro-1H-pyrrolo[3,2-b]pyridin-6-yl)-3-isopropyl-3H-imidazo[4,5-c]pyridin-4-yl)amino)-N-(1-(difluoromethyl)cyclopropyl)-3,4-difluoro-2-methylbenzamide], the half-inhibitory concentration (IC50) worked out at 60 pM.

Take `CC(C)n1cnc2cc(-c3cnc4c(c3)N([C@H]3C[C@@](C)(N5CCC6CC6C5)C3)C(=O)C4(C)C)nc(Nc3cc(C(=O)NC4(C(F)F)CC4)c(Cl)c(F)c3F)c21` (stereo partly shown) [Example 225, 5-((6-(1-((1s,3s)-3-(3-Azabicyclo[4.1.0]heptan-3-yl)-3-methylcyclobutyl)-3,3-dimethyl-2-oxo-2,3-dihydro-1H-pyrrolo[3,2-b]pyridin-6-yl)-3-isopropyl-3H-imidazo[4,5-c]pyridin-4-yl)amino)-2-chloro-N-(1-(difluoromethyl)cyclopropyl)-3,4-difluorobenzamide]: the IC50 turned out to be 80 pM.

Regarding `CC(C)n1cnc2cc(-c3cnc4c(c3)N([C@H]3C[C@@](C)(N5CCCCCC5)C3)C(=O)C4(C)C)nc(Nc3cc(C(=O)NC4(C(F)F)CC4)c(Cl)c(F)c3F)c21` [Example 226, 5-((6-(1-((1s,3s)-3-(Azepan-1-yl)-3-methylcyclobutyl)-3,3-dimethyl-2-oxo-2,3-dihydro-1H-pyrrolo[3,2-b]pyridin-6-yl)-3-isopropyl-3H-imidazo[4,5-c]pyridin-4-yl)amino)-2-chloro-N-(1-(difluoromethyl)cyclopropyl)-3,4-difluorobenzamide], the 50% inhibitory concentration (IC50) came to 100 pM.

For `CC(C)n1cnc2cc(-c3cnc4c(c3)N([C@H]3C[C@@](C)(N5CCC6CC6C5)C3)C(=O)C4(C)C)nc(Nc3cc(C(=O)NC4(CF)CC4)c(Cl)c(F)c3F)c21` (stereo partly shown) [Example 227, 5-((6-(1-((1s,3s)-3-(3-Azabicyclo[4.1.0]heptan-3-yl)-3-methylcyclobutyl)-3,3-dimethyl-2-oxo-2,3-dihydro-1H-pyrrolo[3,2-b]pyridin-6-yl)-3-isopropyl-3H-imidazo[4,5-c]pyridin-4-yl)amino)-2-chloro-3,4-difluoro-N-(1-(fluoromethyl)cyclopropyl)benzamide], the concentration for half-maximal inhibition (IC50) was determined as 100 pM.
